In brackets after ≈: the same amount, converted by molar mass.

Consider 45 molecules from ChEMBL document CHEMBL3596139, “N-Arylalkylbenzo[d]thiazole-2-carboxamides as anti-mycobacterial agents: design, new methods of synthesis and biological evaluation” (Medchemcomm, 2014).

In data set [1] the test system is Mycobacterium tuberculosis. Description: Antimycobacterial activity against Mycobacterium tuberculosis H37Rv ATCC 27294 after 28 days by two-fold serial dilution method. Conditions: H37Rv ATCC 27294, 672 h. In kind it is functional.
Data set [2] can be described thus: Cytotoxicity against HEK293T cells assessed as inhibition of cell viability at 50 ug/ml after 72 hrs by MTT assay relative to control. The following applies: human, read-out: INH. In kind it is cell-based, HEK-293T.
The nature of data set [3]: Therapeutic index, ratio of compound cytotoxic activity for HEK293T cells to antimycobacterial activity against Mycobacterium tuberculosis H37Rv ATCC 27294. In kind it is cell-based, HEK-293T. The following applies: human, read-out: TI.

The molecule `O=C(NCc1ccc(F)c(F)c1)c1nc2ccccc2s1` showed an MIC99 in data set [1] of 25 µg/mL (≈ 82.2 µM).
On the same count and under the same terms, the same measure for `COc1ccccc1CNC(=O)c1nc2ccccc2s1`: 50 µg/mL (≈ 168 µM).
In data set [1], `COc1ccc(CCNC(=O)c2nc3cc(Cl)ccc3s2)cc1OC` gave an MIC99 of 12.5 µg/mL (≈ 33.2 µM). For the same molecule, the cytotoxicity at 72 h, 50 ug/ml in data set [2] came out at 30.9%.
Turning to `O=C(NCc1cccc(Cl)c1)c1nc2ccccc2s1`, in data set [1], the MIC99 turned out to be 50 µg/mL (≈ 165 µM).
Take `O=C(NCCc1ccccc1)c1nc2ccccc2s1`: in data set [1], the MIC99 amounted to 3.12 µg/mL (≈ 11.1 µM). The cytotoxicity at 72 h, 50 ug/ml in data set [2] was found to be 22%.
As for `O=C(NCc1ccc(C(F)(F)F)cc1)c1nc2ccccc2s1`, the MIC99 in data set [1] stood at 12.5 µg/mL (≈ 37.2 µM). In addition, the cytotoxicity at 72 h, 50 ug/ml in data set [2] stood at 36.7%.
Molecule `CC[C@@H](CO)NCCN[C@@H](CC)CO` [ETHAMBUTOL] registered an MIC99 in data set [1] of 1.56 µg/mL (≈ 7.64 µM).
Consider `O=C(NCc1ccc(Cl)cc1)c1nc2ccccc2s1`, for which the MIC99 in data set [1] was 50 µg/mL (≈ 165 µM).
Same read-out and setting: for `Cc1ccc(CNC(=O)c2nc3ccccc3s2)cc1` the value was 50 µg/mL (≈ 177 µM); for `O=C(NCc1cccc(Cl)c1)c1nc2cc(Cl)ccc2s1`, 25 µg/mL (≈ 74.1 µM).
In the case of `O=C(NCc1ccc([N+](=O)[O-])cc1)c1nc2ccccc2s1`, the MIC99 in data set [1] came to 12.5 µg/mL (≈ 39.9 µM). The cytotoxicity at 72 h, 50 ug/ml in data set [2] came to 38.1%.
For the molecule `O=C(NCc1cc(F)ccc1F)c1nc2cc(Cl)ccc2s1`, in data set [1], the MIC99 turned out to be 0.78 µg/mL (≈ 2.3 µM). Moreover, the selectivity ratio in data set [3] was greater than 64. In addition, the cytotoxicity at 72 h, 50 ug/ml in data set [2] was 32.2%.
In turn, `O=C(NCc1ccc(F)cc1)c1nc2cc(C(F)(F)F)ccc2s1` came in with an MIC99 in data set [1] of 12.5 µg/mL (≈ 35.3 µM). Also, in data set [2], the cytotoxicity at 72 h, 50 ug/ml is 38.7%.
For `COc1ccccc1CNC(=O)c1nc2cc(Cl)ccc2s1`, in that order: 12.5 µg/mL (≈ 37.6 µM) and 38.9%.
In turn, `O=C(NCc1ccc(Cl)cc1Cl)c1nc2ccccc2s1` came in with an MIC99 in data set [1] of 50 µg/mL (≈ 148 µM).
On the same count and under the same terms, the same measure for `NNC(=O)c1ccncc1` [ISONIAZID]: 0.098 µg/mL (≈ 0.715 µM); for `COc1ccc(CNC(=O)c2nc3ccccc3s2)cc1O`: 25 µg/mL (≈ 79.5 µM).
Take `O=C(NCc1ccc2c(c1)OCO2)c1nc2ccccc2s1`: the MIC99 in data set [1] is 6.25 µg/mL (≈ 20 µM). In data set [2], the cytotoxicity at 72 h, 50 ug/ml was 16.1%.
For `O=C(NCc1cccc(F)c1)c1nc2ccccc2s1` the same measures were 6.25 µg/mL (≈ 21.8 µM) and 44.6%.
For `Cc1ccccc1CNC(=O)c1nc2ccccc2s1`, in that order: 12.5 µg/mL (≈ 44.3 µM) and 42.6%.
For `Nc1ccc(CCNC(=O)c2nc3cc(Cl)ccc3s2)cc1` the same measures were 1.56 µg/mL (≈ 4.7 µM) and 25.9%.
In the case of `O=C(NCc1ccc(Cl)cc1)c1nc2cc(Cl)ccc2s1`, in data set [1], the MIC99 amounted to 25 µg/mL (≈ 74.1 µM).
Same read-out and setting: the same measure for `COc1ccc(CCNC(=O)c2nc3cc(C(F)(F)F)ccc3s2)cc1OC`: 25 µg/mL (≈ 60.9 µM); for `O=C(NCc1ccc2c(c1)OCO2)c1nc2cc(Cl)ccc2s1`: 25 µg/mL (≈ 72.1 µM).
The molecule `O=C(NCc1ccccc1)c1nc2ccccc2s1` registered an MIC99 in data set [1] of 3.12 µg/mL (≈ 11.6 µM). Moreover, the cytotoxicity at 72 h, 50 ug/ml in data set [2] amounted to 41.2%.
Turning to `COc1ccc(CCNC(=O)c2nc3ccccc3s2)cc1OC`, the MIC99 in data set [1] was found to be 25 µg/mL (≈ 73 µM).
`O=C(NCc1cc(F)ccc1F)c1nc2ccccc2s1`: the MIC99 in data set [1] was found to be 6.25 µg/mL (≈ 20.5 µM). Further, the cytotoxicity at 72 h, 50 ug/ml in data set [2] was found to be 52.1%.
In data set [1], `O=C(NCc1ccccc1F)c1nc2ccccc2s1` returned an MIC99 of 25 µg/mL (≈ 87.3 µM).
For `N#Cc1ccc(CNC(=O)c2nc3ccccc3s2)cc1`, the MIC99 in data set [1] was determined as 12.5 µg/mL (≈ 42.6 µM). In addition, the cytotoxicity at 72 h, 50 ug/ml in data set [2] came to 36%.
For `O=C(NCc1ccccc1)c1nc2cc(Cl)ccc2s1` the same measures were 6.25 µg/mL (≈ 20.6 µM) and 40.1%.
For `COc1ccc(CNC(=O)c2nc3ccccc3s2)cc1OC`, in data set [1], the MIC99 was determined as 12.5 µg/mL (≈ 38.1 µM). In addition, the cytotoxicity at 72 h, 50 ug/ml in data set [2] is 19.1%.
For `O=C(NCc1ccccc1)c1nc2cc(C(F)(F)F)ccc2s1` the same measures were 6.25 µg/mL (≈ 18.6 µM) and 40.1%.
Molecule `O=C(NCc1ccccc1Cl)c1nc2cc(Cl)ccc2s1` displayed an MIC99 in data set [1] of 12.5 µg/mL (≈ 37.1 µM). Further, the cytotoxicity at 72 h, 50 ug/ml in data set [2] was 36%.
Take `Nc1ccc(CCNC(=O)c2nc3ccccc3s2)cc1`: in data set [1], the MIC99 is 25 µg/mL (≈ 84.1 µM).
Take `Nc1ccc(CCNC(=O)c2nc3cc(C(F)(F)F)ccc3s2)cc1`: the MIC99 in data set [1] amounted to 50 µg/mL (≈ 137 µM).
On to `O=C(NCc1ccccc1Cl)c1nc2ccccc2s1`, for which the MIC99 in data set [1] was found to be 6.25 µg/mL (≈ 20.6 µM). For the same molecule, the cytotoxicity at 72 h, 50 ug/ml in data set [2] came to 35.6%.
In data set [1], `COc1ccc(CNC(=O)c2nc3ccccc3s2)c(OC)c1` yielded an MIC99 of 50 µg/mL (≈ 152 µM).
As to `COc1ccc(CNC(=O)c2nc3cc(Cl)ccc3s2)cc1OC`, the MIC99 in data set [1] stood at 6.25 µg/mL (≈ 17.2 µM). The cytotoxicity at 72 h, 50 ug/ml in data set [2] came to 36.1%.
Molecule `CO[C@H]1/C=C/O[C@@]2(C)Oc3c(C)c(O)c4c(O)c(c(/C=N/N5CCN(C)CC5)c(O)c4c3C2=O)NC(=O)/C(C)=C\C=C\[C@H](C)[C@H](O)[C@@H](C)[C@@H](O)[C@@H](C)[C@H](OC(C)=O)[C@@H]1C` [RIFAMPIN] returned an MIC99 in data set [1] of 0.197 µg/mL (≈ 0.239 µM).
For `O=C(NCc1ccc(F)cc1)c1nc2ccccc2s1`, the MIC99 in data set [1] stood at 6.25 µg/mL (≈ 21.8 µM). Besides, the cytotoxicity at 72 h, 50 ug/ml in data set [2] is 50.3%.
Molecule `CC(C)(C)c1ccc(CNC(=O)c2nc3ccccc3s2)cc1` displayed an MIC99 in data set [1] of 50 µg/mL (≈ 154 µM).
On the same count and under the same terms, for `O=C(NCc1ccc(F)cc1)c1nc2cc(Cl)ccc2s1` the value was 25 µg/mL (≈ 77.9 µM); for `COc1ccc(CNC(=O)c2nc3ccccc3s2)cc1`, 25 µg/mL (≈ 83.8 µM); for `O=C(NCc1ccc(F)cc1F)c1nc2ccccc2s1`, 25 µg/mL (≈ 82.2 µM).
In turn, `NC(=O)c1cnccn1` [PYRAZINAMIDE] showed an MIC99 in data set [1] of 6.25 µg/mL (≈ 50.8 µM).
